# Laboratory results: paper PMC11864979, “First-in-class ultralong-target-residence-time p38α inhibitors as a mitosis-targeted therapy for colorectal cancer” (Nature Cancer, 2025)
# Values joined by “and” are separate entries in the source; they are usually repeats but may differ in a detail not shown here. Equal values may be shown once. Read-outs that look alike come from different tables or passages of the source.
# How the values were obtained:
# PDO3 = experiment: cell viability in patient-derived CRC organoids PDO3; type: cell-based, human; conditions: Fig. 3d, replicates
# Protocol: (§1) For in vitro treatment studies, organoids were mechanically dissociated and digested using TrypLE supplemented with 100 µg ml^−1 DNaseI and 10.5 µM Y-27632 dihydrochloride (Invitrogen) at 37 °C. A total of 1,000–2,000 single cells were plated per well in white 96-well plates (Greiner) in culture medium containing 10% GFR Matrigel or Cultrex BME. The treatment with doxycycline (5 µg ml^−1), pharmacological inhibitors or corresponding volumes of DMSO was started 24 h after plating. Doxycycline was obtained from Sigma-Aldrich. […] Cell viability was measured by means of CellTiter-Glo 3D or CellTiter-Glo 2.0 reagent (Promega) according to the manufacturers’ instructions and the Infinite M Plex reader (Tecan, i-control version 3.9.1 software). Results were normalized to vehicle (DMSO) or to shNC. For cell-doubling assays, the cell number was quantified at the corresponding time points using Guava EasyCyte flow cytometer (Luminex, CytoSoft v5.2 software).
# KAP liver metastasis = experiment: survival of wild-type mice with KAP liver metastasis; type: in vivo, mouse; conditions: for Survival: single animals, 1 = event, 0 = censored, Fig. 6e
# Protocol: Subcutaneous injection, splenic seeding or cecum injection of organoids was performed in 8–10-week-old C57BL/6 N/Crl, Rag2^−/− (B6.Cg-Rag2^tm1.1Cgn/J), or CB17 Scid beige (CB17.Cg-Prkdc^scidLyst^bg-J/Crl) mice, obtained from Charles River. The organoids were dissociated into single cells, washed with PBS and injected in a 1:1 mixture of PBS and Matrigel. For murine organoids, 1 × 10^5 cells were injected into the left and right flanks or the spleen capsule and 2 × 10^6 cells were injected into the cecum wall. For human organoids, 4 × 10^5 cells were injected into the flanks of CB17 Scid beige mice. For splenic seeding and cecum injection, mice were anaesthetized using ketamine (100 mg kg^−1, intraperitoneally) and xylazin (10 mg/kg, intraperitoneally) in NaCl and a small laparotomy below the thorax was performed.
# KAP^2D cells = experiment: P-H3^S10 / α-tubulin staining, mitotic phases in KAP^2D cells; type: cell-based, mouse; conditions: replicates, experiment and repetition; for Anaphase, % (of fully P-H3S10+ cells) / Metaphase, % (of fully P-H3S10+ cells) / Multipolar mitosis, % (of fully P-H3S10+ cells) / Telophase, % (of fully P-H3S10+ cells): Fig. 4f; for P-H3S10+ cells, fully positive / P-H3S10+ cells, partially positive: Fig. 4d
# Protocol: Immunofluorescence staining on cells and organoids was performed on glass coverslips or tissue culture chambers (Sarstedt). Organoids were plated in medium containing 10% Matrigel or Cultrex BME. The cultures were fixed with 4% paraformaldehyde and stained with specific antibodies and DAPI (Vector Labs). All used antibodies and dilutions are listed in the Nature Portfolio Reporting Summary. For analyzing DNA synthesis, the Molecular Probes Click-iT EdU Alexa Fluor 555 kit was used 24 h after EdU incorporation with DAPI counterstaining. SA-β-Gal staining of cells was performed in cell culture dishes (cells) or tissue culture chambers (organoids) after fixation with 0.5% glutaraldehyde as described above. Human cultures were incubated with X-Gal solution at pH 6.0 for ~4 h. […] Positive cells were quantified using ImageJ version 1.53a software. The analysis of mitosis was performed with an LSM800 Airyscan (Zeiss) microscope (ZEN version 3.0 software). An Airyscan autofilter processing was applied before image analysis.
# PDO1 = experiment: cell viability in patient-derived CRC organoids PDO1; type: cell-based, human; conditions: Fig. 3b, replicates
# Protocol: as §1
# PDO11 = experiment: cell viability in patient-derived CRC organoids PDO11; type: cell-based, human
# Protocol: as §1
# KMP organoids = experiment: cell viability in KMP organoids; type: cell-based, mouse
# Protocol: A total of 1,000–2,000 single cells were plated per well in white 96-well plates (Greiner) in culture medium containing 10% GFR Matrigel or Cultrex BME. The treatment with doxycycline (5 µg ml^−1), pharmacological inhibitors or corresponding volumes of DMSO was started 24 h after plating. Doxycycline was obtained from Sigma-Aldrich. […] Results were normalized to vehicle (DMSO) or to shNC. For cell-doubling assays, the cell number was quantified at the corresponding time points using Guava EasyCyte flow cytometer (Luminex, CytoSoft v5.2 software).
# PDO4 = experiment: cell viability in patient-derived CRC organoids PDO4; type: cell-based, human; conditions: Fig. 3e, replicates
# Protocol: as §1
# PDO2 = experiment: cell viability in patient-derived CRC organoids PDO2; type: cell-based, human; conditions: Fig. 3c, replicates
# Protocol: as §1
# PDO7 = experiment: cell viability in patient-derived CRC organoids PDO7; type: cell-based, human
# Protocol: as §1
# PDO13 = experiment: cell viability in patient-derived CRC organoids PDO13; type: cell-based, human; conditions: for viability at 0.5 µM / viability at 1 µM: Homo sapiens, 96 h
# Protocol: as §1
# [1] = in vivo pharmacokinetic studies in mice (plasma, LC-MS); set-up: species or system mouse
# Protocol: No mice were excluded during treatment studies. […] GFP imaging of tumors was performed using a Hamamatsu imaging system. For quantification of compounds in the murine plasma, 20 μl of tail-vein blood was diluted with 80 μl of heparin solution, before 200 μl of ice-cold acetonitrile with a defined internal standard was added. The samples were sonicated and centrifuged and the supernatant was subjected to liquid chromatography-mass spectrometry quantification. Full blood analyses were performed with the Sysmex KX-21N hematology analyzer.
# [2] = mouse, plasma, oral administration in mice, 20 mg kg^−1
# [3] = oral administration in mice, 20 mg kg^−1
smiles,measurement,setting,value
CNC(=O)c1ccc2c(c1)C(=O)c1ccc(Nc3ccc(F)c(NC(=O)C4CC4)c3)cc1CC2 [Compound 2015],Cell viability (%),"PDO3; 0,5 µM, 5 µM",69.11% and 51.45%
same,Cell viability (%),"PDO3; 0,25 µM, 25 µM",56.63% and 78.13% and 87.76%
same,Cell viability (%),PDO3; 1 µM,56.28% and 48.78%
same,viability at 5 µM,"PDO3; Homo sapiens, 72 h, 0,5 µM",50.1%
same,viability at 1 µM,"PDO3; Homo sapiens, 72 h, 1 µM",53%
same,survival / therapeutic efficacy in KAP liver metastasis (in words),"KAP liver metastasis; 20 mg kg^−1 daily, start 5 weeks after organoid inoculation",significantly increased the overall survival
same,Survival,KAP liver metastasis,41 d of treatment and 44 d of treatment and 45 d of treatment and 47 d of treatment and ≥ 50 d of treatment and 34 d of treatment
same,"Anaphase, % (of fully P-H3S10+ cells)",KAP^2D cells,0.00%
same,"Metaphase, % (of fully P-H3S10+ cells)",KAP^2D cells,0.00%
same,"Multipolar mitosis, % (of fully P-H3S10+ cells)",KAP^2D cells,75.00% and 72.55% and 66.43% and 67.83% and 80.50% and 84.38%
same,"Telophase, % (of fully P-H3S10+ cells)",KAP^2D cells,1.72% and 0.65% and 0.70% and 0.00% and 1.89% and 0.78%
same,"P-H3S10+ cells, fully positive",KAP^2D cells,12.93% and 17.02% and 15.43% and 13.33% and 14.34% and 14.40%
same,"P-H3S10+ cells, partially positive",KAP^2D cells,12.04% and 13.24% and 14.13% and 9.97% and 10.28% and 12.15%
same,Cell viability (%),PDO1; 0.5 µM,8.84% and 9.77%
same,Cell viability (%),PDO1; 1 µM,9.82% and 5.19%
same,viability at 0.5 µM,"PDO1; Homo sapiens, 0.5 µM",10.1%
same,viability at 1 µM,"PDO1; Homo sapiens, 1 µM",7.92%
same,viability at 0.5 µM,"PDO11; Homo sapiens, 96 h, PDO11, 0.5 µM, 4 d, read-out: Cell viability (%)",105%
same,viability at 1 µM,"PDO11; Homo sapiens, 96 h, PDO11, 1 µM, 4 days",10.3%
same,Cell viability (%),"PDO11; PDO11, 0.5 µM, 4 d, 0.5 µM",87.92% and 104.04%
same,Cell viability (%),"PDO11; PDO11, 1 µM, 4 days, 1 µM",16.83% and 13.26%
same,therapeutic effect in KMP organoids (in words),KMP organoids; 4 days,increased responsiveness
same,Cell viability (%),"KMP organoids; Fig. 2i, 0,5 µM, replicates, 5 µM",17.63% and 7.81% and 29.91%
same,Cell viability (%),"KMP organoids; Fig. 2i, 0,25 µM, replicates",27.91% and 21.06%
same,Cell viability (%),"KMP organoids; Fig. 2i, 1 µM, replicates",17.15% and 26.00%
same,viability at 1 µM,"KMP organoids; Mus musculus, Fig. 2i, 1 µM, replicates",27.8%
same,Cell viability (%),"PDO4; 0,5 µM, 5 µM",13.84% and 14.01%
same,Cell viability (%),"PDO4; 0,25 µM, 25 µM",62.38% and 62.93%
same,Cell viability (%),PDO4; 1 µM,11.63% and 11.83%
same,viability at 25 µM,"PDO4; Homo sapiens, 0,25 µM",60%
same,viability at 1 µM,"PDO4; Homo sapiens, 1 µM",11.2%
same,Cell viability (%),"PDO2; 0,5 µM, 5 µM",17.11% and 9.01% and 7.93%
same,Cell viability (%),"PDO2; 0,25 µM",30.33% and 26.25%
same,Cell viability (%),PDO2; 1 µM,8.07% and 8.23%
same,viability at 1 µM,"PDO2; Homo sapiens, 1 µM",10.5%
same,viability at 1 µM,"PDO7; Homo sapiens, 96 h, PDO7, 1 µM, 4 days, read-out: Cell viability (%)",5.06%
same,Cell viability (%),"PDO7; PDO7, 1 µM, 4 days, 1 µM",7.93% and 9.20%
same,viability at 0.5 µM,"PDO13; PDO13, 0.5 µM, 4 d, read-out: Cell viability (%)",25.4%
same,viability at 1 µM,"PDO13; PDO13, 1 µM, 4 days, read-out: Cell viability (%)",27.4%
same,Cell viability (%),"PDO13; PDO13, 0.5 µM, 4 d, 0.5 µM",27.09% and 31.57%
same,Cell viability (%),"PDO13; PDO13, 1 µM, 4 days, 1 µM",24.42% and 28.18%
same,Plasma concentration,"[1]; 0 min of treatment, individual animals",0.00 µM
same,Plasma concentration,"[1]; 45 min of treatment, individual animals",20.46 µM and 14.73 µM
same,Plasma concentration,"[1]; 90 min of treatment, individual animals",17.75 µM and 16.83 µM
same,Plasma concentration,"[1]; 180 min of treatment, individual animals",13.04 µM and 13.78 µM
same,Plasma concentration,"[1]; 480 min of treatment, individual animals",2.27 µM and 3.36 µM
same,Plasma concentration,"[1]; 1440 min of treatment, individual animals",0.20 µM and 0.04 µM (2×)
same,concentration at 0 min,"[1]; mouse, plasma, oral, 20 mg kg^−1, 0 min of treatment, individual animals",0 nM
same,concentration at 45 min,"[1]; mouse, plasma, oral, 20 mg kg^−1, 45 min of treatment, individual animals",26.8 µM
same,concentration at 90 min,"[1]; mouse, plasma, oral, 20 mg kg^−1, 90 min of treatment, individual animals",25.2 µM
same,concentration at 180 min,"[1]; mouse, plasma, oral, 20 mg kg^−1, 180 min of treatment, individual animals",17 µM
same,concentration at 480 min,"[1]; mouse, plasma, oral, 20 mg kg^−1, 480 min of treatment, individual animals",4.26 µM
same,AUC,[1]; [2],121 µM·h
same,half-life,[1]; [2],2.68 h
same,C^max,[1]; [3],20.7 µM
same,t^max,[1]; [3],45 min
"O=C1c2ccc(Nc3ccc(F)cc3F)cc2CCc2ccc(OC[C@H](O)CO)cc21 [SKL, skepinone-L, reference compound]",Survival,KAP liver metastasis,15 d of treatment and 16 d of treatment and 18 d of treatment and 26 d of treatment and 28 d of treatment and 11 d of treatment
same,"Anaphase, % (of fully P-H3S10+ cells)",KAP^2D cells,10.84% and 8.57% and 15.15% and 12.31% and 9.21% and 11.59%
same,"Metaphase, % (of fully P-H3S10+ cells)",KAP^2D cells,25.30% and 20.00% and 30.30% and 29.23% and 25.00% and 27.54%
same,"Multipolar mitosis, % (of fully P-H3S10+ cells)",KAP^2D cells,3.61% and 2.86% and 6.06% and 3.08% and 3.95% and 8.70%
same,"Telophase, % (of fully P-H3S10+ cells)",KAP^2D cells,8.43% and 9.52% and 12.12% and 10.77% and 13.16% and 15.94%
same,"P-H3S10+ cells, fully positive",KAP^2D cells,4.75% and 6.25% and 2.15% and 4.12% and 5.03% and 3.69%
same,"P-H3S10+ cells, partially positive",KAP^2D cells,6.47% and 7.85% and 5.54% and 6.84% and 8.15%
same,viability at 0.5 µM,"PDO11; Homo sapiens, 96 h, read-out: Cell viability (%), PDO11, 0.5 µM, 4 d",105%
same,Cell viability (%),"PDO11; PDO11, 0.5 µM, 4 d, 0.5 µM",108.79% and 91.94%
same,Cell viability (%),"PDO11; PDO11, 1 µM, 4 days, 1 µM",107.20% and 119.15% and 97.40%
same,viability at 0.5 µM,"PDO7; Homo sapiens, 96 h, read-out: Cell viability (%), PDO7, 0.5 µM, 4 d",82.8%
same,viability at 1 µM,"PDO7; Homo sapiens, 96 h, read-out: Cell viability (%), PDO7, 1 µM, 4 days",96.8%
same,Cell viability (%),"PDO7; PDO7, 0.5 µM, 4 d, 0.5 µM",101.04% and 90.15%
same,Cell viability (%),"PDO7; PDO7, 1 µM, 4 days, 1 µM",99.67% and 101.17%
same,viability at 0.5 µM,"PDO13; read-out: Cell viability (%), PDO13, 0.5 µM, 4 d",90.8%
same,viability at 1 µM,"PDO13; read-out: Cell viability (%), PDO13, 1 µM, 4 days",85.6%
same,Cell viability (%),"PDO13; PDO13, 0.5 µM, 4 d, 0.5 µM",102.60% and 92.37%
same,Cell viability (%),"PDO13; PDO13, 1 µM, 4 days, 1 µM",87.89% and 85.59%
